This is an account of results in US6251919A, “Heterocyclic substituted aniline calcium channel blockers” (Warner-Lambert, priority 1999, dated 2001).

Usually inhibition stands for the change of the read-out against control, counted positive when it falls. The IC50 is the concentration needed to halve the response being measured.

“And” between values parts separate entries of the source, which are not always exact repeats. Identical values can stand only once. Like-named read-outs stand apart in the source and are kept apart here.

The test system of experiment [1] is DBA/2 mice. Put plainly: Audiogenic seizure (anticonvulsant) test in DBA/2 mice. The class given is in vivo. The conditions noted are these: Mus musculus, intravenous, read-out: DBA/2 mice % Protection. The procedure:
A compound of the present invention was dissolved in water using 10% (weight/volume) Emulphor (GAF Corp., Wayne, N.J.) surfactant. Substances were administered by intravenous injection into the retro-orbital venous sinus. All testing was performed fifteen minutes or forty-five minutes after drug injection. All the male mice, 3-4 weeks old were obtained from Jackson Laboratories Bar Harbour, Me. Immediately before anticonvulsant testing, mice were placed upon a wire mesh, four inches square suspended from a steel rod. The square was slowly inserted through 180 degree and mice observed for thirty seconds. Any mouse falling from the wire mesh was scored as ataxia.
Mice were placed into an enclosed acrylic plastic chamber (21 cm height, approximately 30 cm diameter) with a high-frequency speaker (4 cm diameter) in the center of the top lid. An audio signal generator (Protek model B-810) was used to produe a continuous sinusoidal tone that was swept linearly in frequency between 8 kHz and 16 kHz once each 10 msec. The average sound pressure level (SPL) during stimulation was approximately 100 dB at the floor of the chamber. Mice were placed within the chamber and allowed to acclimatize for one minute. DBA/2 mice in the vehicle-treated group responded to the sound stimulus (applied until tonic extension occurred, or for a maximum of sixty seconds) with a characteristic seizure sequence consisting of wild running followed by clonic seizures and later by tonic extension, and finally by respiratory arrest and death in 80% or more of the mice. In vehicle-treated mice, the entire sequence of seizures to respiratory arrest lasts approximately 15-20 seconds.
The incidence of all the seizure phases in the drug-treated and vehicle-treated mice was recorded, and the occurrence of tonic seizures were used for calculating anticonvulsant ED50 values by probit analysis. Mice were used only once for testing at each time and dose point.

In experiment [2] the target is T1, N-type Ca^2+ channel in IMR-32 cells (Homo sapiens, UniProt Q00975).
T1 construct: host or cells: IMR-32 (differentiated with dibutyryl cAMP and bromodeoxyuridine)
T1 sequence (Q00975 whole entry): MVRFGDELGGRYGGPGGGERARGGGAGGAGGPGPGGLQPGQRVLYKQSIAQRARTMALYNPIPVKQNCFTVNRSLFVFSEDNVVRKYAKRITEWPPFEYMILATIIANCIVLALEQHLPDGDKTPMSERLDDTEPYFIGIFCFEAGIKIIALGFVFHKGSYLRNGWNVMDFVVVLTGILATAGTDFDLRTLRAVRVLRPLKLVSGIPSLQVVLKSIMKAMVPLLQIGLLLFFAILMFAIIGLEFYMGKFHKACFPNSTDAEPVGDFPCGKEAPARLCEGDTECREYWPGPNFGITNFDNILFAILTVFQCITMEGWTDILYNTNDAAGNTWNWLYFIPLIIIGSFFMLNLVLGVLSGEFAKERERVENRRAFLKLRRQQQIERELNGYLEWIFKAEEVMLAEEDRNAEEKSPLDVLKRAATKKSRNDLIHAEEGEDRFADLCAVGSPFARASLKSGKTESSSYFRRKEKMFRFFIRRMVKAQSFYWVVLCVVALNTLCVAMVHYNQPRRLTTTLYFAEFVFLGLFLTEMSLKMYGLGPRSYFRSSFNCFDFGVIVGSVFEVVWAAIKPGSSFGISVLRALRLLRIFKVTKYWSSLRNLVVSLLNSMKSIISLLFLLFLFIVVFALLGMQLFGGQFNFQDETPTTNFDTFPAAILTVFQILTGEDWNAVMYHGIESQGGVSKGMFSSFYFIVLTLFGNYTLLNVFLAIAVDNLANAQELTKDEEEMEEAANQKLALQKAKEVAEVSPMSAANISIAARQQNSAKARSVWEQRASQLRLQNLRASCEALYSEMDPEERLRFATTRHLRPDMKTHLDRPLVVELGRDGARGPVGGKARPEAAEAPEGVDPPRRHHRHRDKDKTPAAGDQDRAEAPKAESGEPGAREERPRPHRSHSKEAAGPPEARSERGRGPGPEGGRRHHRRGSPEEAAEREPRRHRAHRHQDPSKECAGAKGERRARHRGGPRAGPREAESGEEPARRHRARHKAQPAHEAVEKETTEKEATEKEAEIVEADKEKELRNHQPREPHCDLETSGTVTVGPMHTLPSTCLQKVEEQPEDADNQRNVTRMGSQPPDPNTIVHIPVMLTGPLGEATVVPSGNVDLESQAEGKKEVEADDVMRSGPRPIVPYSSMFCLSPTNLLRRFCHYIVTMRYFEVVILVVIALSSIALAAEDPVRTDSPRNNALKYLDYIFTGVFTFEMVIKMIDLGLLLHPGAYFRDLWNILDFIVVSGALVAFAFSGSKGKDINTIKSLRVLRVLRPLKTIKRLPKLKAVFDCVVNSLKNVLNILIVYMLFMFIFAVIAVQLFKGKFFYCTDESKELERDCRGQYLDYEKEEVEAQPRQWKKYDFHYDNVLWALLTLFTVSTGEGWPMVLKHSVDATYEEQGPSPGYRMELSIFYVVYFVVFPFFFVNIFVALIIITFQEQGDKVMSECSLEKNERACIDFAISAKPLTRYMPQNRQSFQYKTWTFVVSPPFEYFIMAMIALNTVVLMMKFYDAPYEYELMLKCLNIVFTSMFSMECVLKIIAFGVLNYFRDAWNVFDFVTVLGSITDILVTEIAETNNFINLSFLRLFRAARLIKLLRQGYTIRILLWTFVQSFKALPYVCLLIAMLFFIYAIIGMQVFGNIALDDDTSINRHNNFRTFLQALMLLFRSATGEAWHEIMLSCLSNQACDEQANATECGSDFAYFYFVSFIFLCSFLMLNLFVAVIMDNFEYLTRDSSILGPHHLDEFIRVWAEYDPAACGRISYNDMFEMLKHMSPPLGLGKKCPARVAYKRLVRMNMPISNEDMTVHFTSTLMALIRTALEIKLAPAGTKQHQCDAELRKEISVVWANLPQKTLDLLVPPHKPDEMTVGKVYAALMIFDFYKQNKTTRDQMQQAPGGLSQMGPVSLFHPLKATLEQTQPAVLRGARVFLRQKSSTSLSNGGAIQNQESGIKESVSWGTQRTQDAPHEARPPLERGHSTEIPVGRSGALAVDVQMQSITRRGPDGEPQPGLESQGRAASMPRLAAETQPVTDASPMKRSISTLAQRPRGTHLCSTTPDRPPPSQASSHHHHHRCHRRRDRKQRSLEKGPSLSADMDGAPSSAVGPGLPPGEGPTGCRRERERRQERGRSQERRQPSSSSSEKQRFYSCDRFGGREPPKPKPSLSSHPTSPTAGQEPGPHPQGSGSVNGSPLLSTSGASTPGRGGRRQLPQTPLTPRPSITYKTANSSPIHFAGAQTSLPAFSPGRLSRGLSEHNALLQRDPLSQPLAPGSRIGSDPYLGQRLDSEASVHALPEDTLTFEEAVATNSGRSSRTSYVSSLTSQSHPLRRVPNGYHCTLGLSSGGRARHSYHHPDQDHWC
Briefly: N-type Ca2+ channel blockade in IMR-32 cells (fluorescent Ca2+ indicator Indo-1). Type of experiment: cell-based. The conditions noted are these: 5 μM nitrendipine present; for inhibition at 1 µM: IMR-32, 1 μM; for inhibition at 10 µM: IMR-32, 10 μM.

As to `CC(C)=CCN(c1ccc(OCc2ccccc2)cc1)C1CCN(Cc2c[nH]cn2)CC1` [Example 8, (4-Benzyloxy-phenyl)-[1(1H-imidazol-4-ylmethyl)-piperidin-4-yl]-(3-methyl-but-2-enyl)-amine], the responders at 10 mg/kg in experiment [1] stood at 60%. Moreover, in experiment [2], the inhibition at 1 µM was 16% and 10 µM produced 71% inhibition. In the case of `CC(C)=CCN(c1ccc(OCc2ccccc2)cc1)C1CCN(Cc2ccccc2)CC1` [Example 19, (4-Benzyloxy-phenyl)-(1-benzyl-piperidin4-yl)-(3-methyl-but-2-enyl)-amine], in experiment [1], the responders at 10 mg/kg came out at 80%. In experiment [2], this compound had an IC50 of 720 nM. Consider `CC(C)=CCN(c1ccc(OCc2ccccc2)cc1)C1CCN(Cc2ccc(O)cc2)CC1` [Example 5, 4-{4-[(4-Benzyloxy-phenyl)-(3-methyl-but-2-enyl)-amino]-piperidin-1-ylmethyl}-phenol], for which the responders at 10 mg/kg in experiment [1] was 80%. Further, in experiment [2], the inhibition at 1 µM was found to be 47% and the inhibition at 10 µM came out at 100%.

Take `CC(C)=CCN(c1ccc(OCc2ccccc2)cc1)C1CCN(Cc2ccc[nH]2)CC1` [Example 7, (4-Benzyloxy-phenyl)-(3-methyl-but-2-enyl)-[1-(1H-pyrrol-2-ylmethyl)-piperidin-4-yl]-amine]: the responders at 10 mg/kg in experiment [1] is 100%. Also, in experiment [1] (30 mg/kg), the responders at 30 mg/kg was determined as 100%. Regarding `CC(C)=CCN(c1ccc(OCc2ccccc2)cc1)C1CCN(CCC(C)(C)C)CC1` [Example 2, (4-Benzyloxy-phenyl)-[1-(3,3-dimethyl-butyl)-piperidin-4-yl]-(3-methyl-but-2-enyl)-amine], the responders at 10 mg/kg in experiment [1] worked out at 80%. In experiment [2], this compound had an inhibition at 1 µM of 62% and an inhibition at 10 µM of 93%.

As to `CC(C)=CCN(c1ccc(OCc2ccccc2)cc1)C1CCN(C(=O)C2CN(C(C)C)CCN2CCC(C)C)CC1` (stereo not shown) [Example 15, {4-[(4-Benzyloxy-phenyl)-(3-methyl-but-2-enyl)-amino]-piperidin-1-yl}-[4-isopropyl-1-(3-methyl-butyl)-piperazin-2-yl]-methanone], in experiment [1] (0.75 h, 30 mg/kg (45 min)), the responders at 30 mg/kg is 100%. Besides, in experiment [1], the responders at 10 mg/kg is 20%. In addition, in experiment [2], the inhibition at 1 µM was found to be 51% and testing at 10 µM gave an inhibition of 92%.

With `CC(C)=CCN(c1ccc(OCc2ccccc2)cc1)C1CCN(Cc2ccc(N(C)C)cc2)CC1` [Example 6, (4-Benzyloxy-phenyl)-[1-(4-dimethylamino-benzyl)-piperidin-4-yl]-(3-methyl-but-2-enyl)-amine], the responders at 10 mg/kg in experiment [1] amounted to 100%. Also, the responders at 30 mg/kg in experiment [1] (30 mg/kg) was determined as 100%. For the compound `CC(C)=CCN(c1ccc(OC(C)C)cc1)C1CCN(CCC(C)C)CC1` [Example 34, (4-Isopropoxy-phenyl)-(3-methyl-but-2-enyl)-[1-(3-methyl-butyl)-piperidin-4-yl]-amine], in experiment [2], the inhibition at 1 µM amounted to 23% and the inhibition at 10 µM came out at 76%. `CC(C)=CCN(c1ccc(OCc2ccccc2)cc1)C1CCN(Cc2ccccn2)CC1` [Example 9, (4-Benzyloxy-phenyl)-(3-methyl-but-2-enyl)-(1-pyridin-2-ylmethyl-piperidin-4-yl)-amine]: in experiment [2], the inhibition at 1 µM is 30% and the inhibition at 10 µM came out at 100%. With `CC(C)=CCN(c1ccc(OCc2ccccc2)cc1)C1CCN(CCC(C)C)CC1` [Example 1, (4-Benzyloxy-phenyl)-(3-methyl-but-2-enyl)-[1-(3-methyl-butyl)-piperidin-4-yl]-amine], the responders at 30 mg/kg in experiment [1] (30 mg/kg) was determined as 100%. In experiment [2], this compound showed an inhibition at 1 µM of 40% and an inhibition at 10 µM of 79%.

Consider `CC(C)=CCN(c1ccc(CCC(C)(C)C)cc1)C1CCN(Cc2ccc(N(C)C)cc2)CC1` [Example 39, [1-(4-Dimethylamino-benzyl)-piperidin-4-yl]-[4-(3,3-dimethyl-butyl)-phenyl]-(3-methyl-but-2-enyl)-amine], for which the “IMR 32 % of Blockade @ 1 μM” value in experiment [2] (1 μM) is 85% and 60%. In experiment [2], `CC(C)=CCN(c1ccc(C(C)C)cc1)C1CCN(CCC(C)(C)C)CC1` [Example 26, [1-(3,3-Dimethyl-butyl)-piperidin-4-yl]-(4-isopropyl-phenyl)-(3-methyl-but-2-enyl)-amine] returned an inhibition at 1 µM of 43%.

`CC(C)=CCN(c1ccc(OCc2ccccc2)cc1)C1CCN(C2CCOCC2)CC1` [Example 10, (4-Benyloxy-phenyl)-(3-methyl-but-2-enyl)-[1-(tetrahydro-pyran4-yl)-piperidin-4-yl]-amine]: in experiment [2], testing at 1 µM gave an inhibition of 15% and testing at 10 µM gave an inhibition of 62%. With `CC(C)CCN(c1ccc(OCc2ccc(F)cc2)cc1)C1CCN(CCC(C)(C)C)CC1` [Example 43, [1-(3,3-Dimethyl-butyl)-piperidin-4-yl]-[4-(4-fluoro-benzyloxy)-phenyl]-(3-methyl-butyl)-amine], in experiment [2], the inhibition at 1 µM was determined as 65% and the inhibition at 10 µM worked out at 99%. Turning to `CC(C)=CCN(c1ccc(CCC(C)(C)C)cc1)C1CCN(Cc2ccc[nH]2)CC1` [Example 47, [4-(3,3-Dimethyl-butyl)-phenyl]-(3-methyl-but-2-enyl)-[1-(1H-pyrrol-2-ylmethyl)-piperidin-4-yl]-amine], half-maximal inhibition in experiment [2] (IC50) was put at 900 nM. `CC(C)=CCN(c1ccc(C(C)C)cc1)C1CCN(CCC(C)C)CC1` [Example 28, (4-Isopropyl-phenyl)-(3-methyl-but-2-enyl)-[1-(3-methyl-butyl)-piperidin-4-yl]-amine] had an inhibition at 1 µM in experiment [2] of 41%. With `CC(C)=CCN(c1ccc(OCc2ccccc2)cc1)C1CCCN(Cc2ccc(C(C)(C)C)cc2)C1` (stereo not shown) [Example 50, (4-Benzyloxy-phenyl)-[1-(4-tert-butyl-benzyl)-piperidin-3-yl]-(3-methyl-but-2-enyl)-amine], in experiment [2], at 1 µM the inhibition was 86% and the inhibition at 10 µM amounted to 96%. Regarding `CC(C)=CCN(c1ccc(OCc2ccccc2)cc1)C1CCCN(Cc2ccccc2)C1` (stereo not shown) [Example 49, (4-Benzyloxy-phenyl)-(1-benzyl-piperidin-3-yl)-(3-methyl-but-2-enyl)-amine], 1200 nM corresponded to half-maximal inhibition in experiment [2] (IC50). As for `CC(C)=CCN(c1ccc(OCc2ccccc2)cc1)C1CCN(C(=O)C2C(C)CCCN2CCC(C)C)CC1` (stereo not shown) [Example 18, {4-[(4-Benzyloxy-phenyl)-(3-methyl-but-2-enyl)-amino]-piperidin-1-yl}-[3-methyl-1-(3-methyl-butyl)-piperidin-2-yl]-methanone], in experiment [2], testing at 1 µM gave an inhibition of 60% and the inhibition at 10 µM turned out to be 88%. In experiment [2], `CC(C)=CCN(c1ccc(C(C)C)cc1)C1CCN(Cc2ccc(F)cc2)CC1` [Example 29, [1-(4-Fluoro-benzyl)-piperidin-4-yl]-(4-isopropyl-phenyl)-(3-methyl-but-2-enyl)-amine] registered an inhibition at 1 µM of 17% and an inhibition at 10 µM of 84%. Take `CC(C)=CCN(c1ccc(OCc2ccccc2)cc1)C1CCN(CCC(C)O)CC1` (stereo not shown) [Example 20, 4-{4-[(4-Benzyloxy-phenyl)-(3-methyl-but-2-enyl)-aminol]-piperidin-1-yl}-butan-2-ol]: the responders at 10 mg/kg in experiment [1] was 40%. Further, the IC50 in experiment [2] was 3000 nM. `CC(C)=CCN(c1ccc(OCc2ccccc2)cc1)C1CCN(Cc2ccc(F)cc2)CC1` [Example 25, (4-Benzyloxy-phenyl)-[1-(4-fluoro-benzyl)-piperidin4-yl]-(3-methyl-but-2-enyl)-amine] came in with an inhibition at 1 µM in experiment [2] of 62%. `CC(C)=CCN(c1ccc(OCc2ccccc2)cc1)C1CCN(CCCc2ccccc2)CC1` [Example 22, (4-Benzyloxy-phenyl)-(3-methyl-but-2-enyl)-[1-(3-phenyl-propyl)-piperidin-4-yl]-amine] returned an IC50 in experiment [2] of 500 nM. In experiment [2], `CC(C)CCN1CCC(N(CCC(C)C)c2ccc(OCC3CCCCC3)cc2)CC1` [Example 40, (4-Cyclohexylmethoxy-phenyl)-(3-methyl-butyl)-[1-(3-methyl-butyl)-piperidin-4-yl]-amine] registered an inhibition at 1 µM of 72%.
